From US8828908B2, “Herbicidally active bicyclic 1,3-dione compounds” (Syngenta Limited, priority 2007, dated 2014)

Columns and labels:
Type in all cases: in vivo
[1] = test system: Alopecurus myosuroides (ALOMY); assay: Example A pre-emergence herbicidal glasshouse test; settings: 312 h, Rate 250 g/ha, evaluated after 13 days, 100=total damage to plant, 0=no damage to plant
Outline: (§1)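 After sowing in standard soil, pots were cultivated 1 day (pre-emergence) or 8 days (post-emergence), then treated with an aqueous spray of the formulated active ingredient (acetone/water 50:50, 0.5% Tween 20). Phytotoxicity was assessed on a 0–100 scale at 13 days.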

[2] = test system: Amaranthus retroflexus (AMARE); assay: Example A pre-emergence herbicidal glasshouse test; settings: 312 h, Rate 250 g/ha, evaluated after 13 days, 100=total damage to plant, 0=no damage to plant
Outline: as §1

Avena fatua (AVEFA) [3] = assay: Example A pre-emergence herbicidal glasshouse test; settings: 312 h, Rate 250 g/ha, evaluated after 13 days, 100=total damage to plant, 0=no damage to plant
Outline: as §1

[4] = test system: Echinochloa crus-galli (ECHCG); assay: Example A pre-emergence herbicidal glasshouse test; settings: 312 h, Rate 250 g/ha, evaluated after 13 days, 100=total damage to plant, 0=no damage to plant
Outline: as §1

Setaria faberi (SETFA) [5] = assay: Example A pre-emergence herbicidal glasshouse test; settings: 312 h, Rate 250 g/ha, evaluated after 13 days, 100=total damage to plant, 0=no damage to plant
Outline: as §1

[6] = test system: Alopecurus myosuroides (ALOMY); assay: Example A post-emergence herbicidal glasshouse test; settings: 312 h, evaluated after 13 days, 100=total damage to plant, 0=no damage
Outline: as §1

[7] = test system: Amaranthus retroflexus (AMARE); assay: as above; settings: 312 h, evaluated after 13 days, 100=total damage to plant, 0=no damage
Outline: as §1

Avena fatua (AVEFA) [8] = assay: as above; settings: 312 h, evaluated after 13 days, 100=total damage to plant, 0=no damage
Outline: as §1

[9] = test system: Echinochloa crus-galli (ECHCG); assay: as above; settings: 312 h, evaluated after 13 days, 100=total damage to plant, 0=no damage
Outline: as §1

Setaria faberi (SETFA) [10] = assay: as above; settings: 312 h, evaluated after 13 days, 100=total damage to plant, 0=no damage
Outline: as §1

[11] = test system: Alopecurus myosuroides (ALOMY); assay: Example B pre-emergence herbicidal greenhouse test; settings: 480 h, evaluated after 20 days, 100=total damage to plant, 0=no damage
Procedure: (§2) Seeds of a variety of test species were sown in standard soil in pots. After cultivation for one day (pre-emergence) or after 10 days cultivation (post-emergence) under controlled conditions in a glasshouse, the plants were sprayed with an aqueous spray solution derived from the formulation of the technical active ingredient in 0.6 ml acetone and 45 ml formulation solution containing 10.6% Emulsogen EL (Registry number 61791-12-6), 42.2% N-methylpyrrolidone, 42.2% dipropylene glycol monomethyl ether (Registry number 34590-94-8) and 0.2% X-77 (Registry number 11097-66-8). The test plants were then grown in a greenhouse under optimum conditions until, 15 days later for post-emergence and 20 days for pre-emergence, the test was evaluated (100=total damage to plant; 0=no damage to plant).
(§3) Alopecurus myosuroides (ALOMY), Avena fatua (AVEFA), Lolium perenne (LOLPE), Setaria faberi (SETFA), Digitaria sanguinalis (DIGSA), Echinochloa crus-galli (ECHCG)

Avena fatua (AVEFA) [12] = assay: Example B pre-emergence herbicidal greenhouse test; settings: 480 h, evaluated after 20 days, 100=total damage to plant, 0=no damage
Procedure: as §2, §3

[13] = test system: Digitaria sanguinalis (DIGSA); assay: Example B pre-emergence herbicidal greenhouse test; settings: 480 h, evaluated after 20 days, 100=total damage to plant, 0=no damage
Procedure: as §2, §3

[14] = test system: Echinochloa crus-galli (ECHCG); assay: Example B pre-emergence herbicidal greenhouse test; settings: 480 h, evaluated after 20 days, 100=total damage to plant, 0=no damage
Procedure: as §2, §3

Lolium perenne (LOLPE) [15] = assay: Example B pre-emergence herbicidal greenhouse test; settings: 480 h, evaluated after 20 days, 100=total damage to plant, 0=no damage
Procedure: as §2, §3

Setaria faberi (SETFA) [16] = assay: Example B pre-emergence herbicidal greenhouse test; settings: 480 h, evaluated after 20 days, 100=total damage to plant, 0=no damage
Procedure: as §2, §3

[17] = test system: Alopecurus myosuroides (ALOMY); assay: Example B post-emergence herbicidal greenhouse test; settings: 360 h, evaluated after 15 days, 100=total damage to plant, 0=no damage
Procedure: as §2, §3

Avena fatua (AVEFA) [18] = assay: as above; settings: 360 h, evaluated after 15 days, 100=total damage to plant, 0=no damage
Procedure: as §2, §3

[19] = test system: Digitaria sanguinalis (DIGSA); assay: as above; settings: 360 h, evaluated after 15 days, 100=total damage to plant, 0=no damage
Procedure: as §2, §3

[20] = test system: Echinochloa crus-galli (ECHCG); assay: as above; settings: 360 h, evaluated after 15 days, 100=total damage to plant, 0=no damage
Procedure: as §2, §3

Lolium perenne (LOLPE) [21] = assay: as above; settings: 360 h, evaluated after 15 days, 100=total damage to plant, 0=no damage
Procedure: as §2, §3

Setaria faberi (SETFA) [22] = assay: as above; settings: 360 h, evaluated after 15 days, 100=total damage to plant, 0=no damage
Procedure: as §2, §3

SMILES	pest or weed control at 250 g/ha [1]	pest or weed control at 250 g/ha [2]	pest or weed control at 250 g/ha (Avena fatua (AVEFA) [3])	pest or weed control at 250 g/ha [4]	pest or weed control at 250 g/ha (Setaria faberi (SETFA) [5])	pest or weed control at 250 g/ha [6]	pest or weed control at 250 g/ha [7]	pest or weed control at 250 g/ha (Avena fatua (AVEFA) [8])	pest or weed control at 250 g/ha [9]	pest or weed control at 250 g/ha (Setaria faberi (SETFA) [10])	pest or weed control at 250 g/ha [11]	pest or weed control at 250 g/ha (Avena fatua (AVEFA) [12])	pest or weed control at 250 g/ha [13]	pest or weed control at 250 g/ha [14]	pest or weed control at 250 g/ha (Lolium perenne (LOLPE) [15])	pest or weed control at 250 g/ha (Setaria faberi (SETFA) [16])	pest or weed control at 125 g/ha [17]	pest or weed control at 125 g/ha (Avena fatua (AVEFA) [18])	pest or weed control at 125 g/ha [19]	pest or weed control at 125 g/ha [20]	other results
CCc1ccc(-c2ccc(Cl)cc2Cl)cc1C1=C(OC(=O)OC)[C@H]2CC[C@H](C2)C1=O (single isomer, unassigned) [Compound P4, carbonic acid 3-(2′,4′-dichloro-4-ethylbiphen-3-yl)-4-oxo-bicyclo[3.2.1]oct-2-en-2-yl ester methyl ester]	80%	40%	50%	90%	100%	100%	0%	90%	100%	100%	90%	70%	100%	100%	90%	100%	100%	80%	100%	100%	pest or weed control at 125 g/ha (Lolium perenne (LOLPE) [21]): 90%; pest or weed control at 125 g/ha (Setaria faberi (SETFA) [22]): 100%
CCc1ccc(-c2ccc(Cl)cc2Cl)cc1C1=C(OC(C)=O)[C@H]2CC[C@H](C2)C1=O (single isomer, unassigned) [Compound P7]	40%	0%	90%	100%	100%	90%	0%	100%	100%	100%	70%	30%	80%	50%	70%	80%	60%	80%	90%	100%	pest or weed control at 125 g/ha (Lolium perenne (LOLPE) [21]): 70%; pest or weed control at 125 g/ha (Setaria faberi (SETFA) [22]): 100%
CCc1ccc(-c2ccc(Cl)cc2C)cc1C1=C(O)[C@H]2CC[C@H](C2)C1=O (single isomer, unassigned) [Compound T33]	60%	0%	20%	90%	90%	60%	0%	60%	100%	100%	60%	20%	70%	70%	70%	70%	60%	70%	60%	100%	pest or weed control at 125 g/ha (Lolium perenne (LOLPE) [21]): 20%; pest or weed control at 125 g/ha (Setaria faberi (SETFA) [22]): 100%
CCc1ccc(-c2ccc(Cl)c(C#N)c2)cc1C1=C(O)[C@H]2CC[C@H](C2)C1=O (single isomer, unassigned) [Compound T34]	60%	0%	0%	70%	100%	70%	0%	70%	100%	90%	40%	40%	90%	90%	40%	90%	0%	10%	40%	80%	pest or weed control at 125 g/ha (Lolium perenne (LOLPE) [21]): 0%; pest or weed control at 125 g/ha (Setaria faberi (SETFA) [22]): 40%
CCc1ccc(-c2ccc(Cl)c(Cl)c2)cc1C1=C(O)[C@H]2CC[C@H](C2)C1=O (single isomer, unassigned) [Compound T35]	20%	0%	20%	90%	90%	40%	0%	50%	100%	100%	10%	30%	70%	50%	20%	40%	0%	10%	70%	80%	pest or weed control at 125 g/ha (Lolium perenne (LOLPE) [21]): 20%; pest or weed control at 125 g/ha (Setaria faberi (SETFA) [22]): 70%
CCc1ccc(-c2ccc(Cl)c(F)c2)cc1C1=C(O)[C@H]2CC[C@H](C2)C1=O (single isomer, unassigned) [Compound T36]	70%	0%	50%	100%	100%	90%	0%	100%	100%	100%	70%	60%	100%	100%	90%	90%	80%	100%	100%	100%	pest or weed control at 125 g/ha (Lolium perenne (LOLPE) [21]): 30%; pest or weed control at 125 g/ha (Setaria faberi (SETFA) [22]): 100%
CCc1ccc(-c2ccc(Cl)c(C(F)(F)F)c2)cc1C1=C(O)[C@H]2CC[C@H](C2)C1=O (single isomer, unassigned) [Compound T37]	50%	0%	0%	90%	90%	90%	20%	90%	100%	100%	70%	60%	90%	100%	40%	100%	70%	90%	100%	100%	pest or weed control at 125 g/ha (Lolium perenne (LOLPE) [21]): 30%; pest or weed control at 125 g/ha (Setaria faberi (SETFA) [22]): 100%
CCc1ccc(-c2ccc(F)c(Cl)c2)cc1C1=C(O)[C@H]2CC[C@H](C2)C1=O (single isomer, unassigned) [Compound T39]	50%	20%	30%	100%	100%	60%	0%	30%	100%	100%	70%	40%	90%	90%	90%	90%	0%	20%	80%	80%	pest or weed control at 125 g/ha (Lolium perenne (LOLPE) [21]): 10%; pest or weed control at 125 g/ha (Setaria faberi (SETFA) [22]): 70%
